The values below come from ChEMBL document CHEMBL1143456, “Identification of a potent and selective 5-HT1B receptor antagonist” (Bioorg Med Chem Lett, 2005).

The target in series [1] is T1, 5-hydroxytryptamine receptor 1D (Homo sapiens, UniProt P28221). The experiment in a line: Binding affinity against cloned human 5-hydroxytryptamine 1D receptor.
Series [2] concerns the target T2, 5-hydroxytryptamine receptor 1A (Homo sapiens, UniProt P08908).
T2 sequence (P08908 whole entry): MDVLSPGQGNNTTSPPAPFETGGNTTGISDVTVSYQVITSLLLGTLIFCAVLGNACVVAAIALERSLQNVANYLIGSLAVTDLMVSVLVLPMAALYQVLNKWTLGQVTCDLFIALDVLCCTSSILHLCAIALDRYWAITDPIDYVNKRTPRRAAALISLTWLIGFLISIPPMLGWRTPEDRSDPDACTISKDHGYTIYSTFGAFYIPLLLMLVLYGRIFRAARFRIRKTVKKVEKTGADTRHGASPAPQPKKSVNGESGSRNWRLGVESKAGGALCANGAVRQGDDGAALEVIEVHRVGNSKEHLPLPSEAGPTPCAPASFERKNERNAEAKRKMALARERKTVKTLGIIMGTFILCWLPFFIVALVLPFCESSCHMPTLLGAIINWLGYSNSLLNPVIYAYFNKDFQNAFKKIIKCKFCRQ
In words: Binding affinity against cloned human 5-hydroxytryptamine 1A receptor.

The species entered for series [3] is Homo sapiens. In words: Selectivity towards human 5-hydroxytryptamine 1B receptor to that of 5-hydroxytryptamine 1A receptor.
The target in series [4] is T3, 5-hydroxytryptamine receptor 1B (Homo sapiens, UniProt P28222). In words: Binding affinity against cloned human 5-hydroxytryptamine 1B receptor.
T3 sequence (P28222 whole entry): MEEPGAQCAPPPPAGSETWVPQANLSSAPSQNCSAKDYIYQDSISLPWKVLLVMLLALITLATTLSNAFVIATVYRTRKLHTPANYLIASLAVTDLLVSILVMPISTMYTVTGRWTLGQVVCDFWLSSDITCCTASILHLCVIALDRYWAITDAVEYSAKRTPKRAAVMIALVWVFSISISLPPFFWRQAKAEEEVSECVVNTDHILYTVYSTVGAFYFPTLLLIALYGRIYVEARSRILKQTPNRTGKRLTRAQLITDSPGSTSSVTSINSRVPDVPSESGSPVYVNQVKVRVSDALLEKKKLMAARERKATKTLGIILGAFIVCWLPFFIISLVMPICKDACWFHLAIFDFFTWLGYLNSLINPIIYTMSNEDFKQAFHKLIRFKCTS
Series [5] deals with Serotonin 1 receptors; 5-HT1B & 5-HT1D (Homo sapiens) (UniProt P28222+P28221). The experiment in a line: Selectivity towards human 5-hydroxytryptamine 1B receptor to that of 5-hydroxytryptamine 1D receptor. The class given is protein assay.
Series [6] deals with T3, 5-hydroxytryptamine receptor 1B. The experiment in a line: Intrinsic activity for human 5-hydroxytryptamine 1B receptor.
For series [7], the species on record is Rattus norvegicus. The experiment in a line: Intrinsic clearance from rat liver microsomes. The class given is ADME, Microsome. Background: Microsomes from liver hold many membrane-bound enzymes, among them those of drug oxidation.
Series [8] can be described thus: Intrinsic clearance from human liver microsomes. The class given is ADME, Microsome.
The target of series [9] is T1, 5-hydroxytryptamine receptor 1D. The experiment in a line: Intrinsic activity for human 5-hydroxytryptamine 1D receptor.

The structures appear in SMILES notation.

T1 sequence (P28221 whole entry): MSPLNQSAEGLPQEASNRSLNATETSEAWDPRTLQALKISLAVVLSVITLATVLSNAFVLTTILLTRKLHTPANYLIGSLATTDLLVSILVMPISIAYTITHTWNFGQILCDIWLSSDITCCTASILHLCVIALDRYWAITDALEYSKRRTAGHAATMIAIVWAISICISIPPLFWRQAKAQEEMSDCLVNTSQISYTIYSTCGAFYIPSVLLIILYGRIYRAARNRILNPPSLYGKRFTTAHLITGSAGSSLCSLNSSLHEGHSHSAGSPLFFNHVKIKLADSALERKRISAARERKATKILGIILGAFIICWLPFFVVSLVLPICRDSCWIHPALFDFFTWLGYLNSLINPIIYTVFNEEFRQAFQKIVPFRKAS

As for `COc1cc2c(cc1N1CCN(C)CC1)N(C(=O)Cc1cccc([N+](=O)[O-])c1)CC2`, the Ki (usually the dissociation constant of the complex between target and ligand, obtained from inhibition or displacement) in series [1] was 31.6 nM; in [2] it was 158 nM; in series [4], 7.94 nM. Also, the results for the Selectivity in series [3] and in series [5] were 20 and 4, respectively.
In the case of `COc1cc2c(cc1N1C[C@@H](C)N(C)[C@@H](C)C1)N(C(=O)Nc1cccc(C(F)(F)F)c1Cl)CC2`, the results for the Ki in series [1] and in series [4] were 50.1 nM and 2.51 nM, respectively. This molecule also displayed an Intrinsic activity in [6] of 0.
`COc1cc2c(cc1N1C[C@@H](C)N(C)[C@@H](C)C1)N(C(=O)c1ccc(-c3ccc(-c4noc(C)n4)cc3C)cc1)CC2`: the Ki in series [1] is 15.8 nM; in series [4], 5.01 nM.
On to `COc1cc2c(cc1N1C[C@@H](C)N(C)[C@@H](C)C1)N(C(=O)Cc1cccc(Cl)c1F)CC2`, for which the figures for the Ki in series [1] and in series [4] were 100 nM and 2 nM, respectively. Further, the Intrinsic activity in series [6] came to 0.1.
Take `COc1cc2c(cc1N1C[C@@H](C)N(C)[C@@H](C)C1)N(C(=O)Oc1cccc(C(F)(F)F)c1F)CC2`: the figures for the Ki in [1] and in series [4] were 31.6 nM and 2.51 nM, respectively. The same molecule gave an Intrinsic activity in series [6] of 0.1.
On to `COc1cc2c(cc1N1C[C@@H](C)N[C@@H](C)C1)N(C(=O)c1ccc(-c3ccc(C(C)=O)cc3C)cc1)CC2`, for which the values for the Ki in [1] and in series [4] were 398 nM and 3.16 nM, respectively.
As for `COc1cc2c(cc1N1C[C@@H](C)N(C)[C@@H](C)C1)N(C(=O)Oc1cccc(C(F)(F)F)c1Cl)CC2`, the Ki in [1] is 25.1 nM; in series [4], 2.51 nM. Also, the Intrinsic activity in [6] was 0.15.
The corresponding values for `COc1cc2c(cc1N1C[C@@H](C)N(C)[C@@H](C)C1)N(C(=O)Nc1cccc(Cl)c1F)CC2` are 200 nM, 7.94 nM and 0.1.
On the same counts, the results for `COc1cc2c(cc1N1C[C@@H](C)N[C@@H](C)C1)N(C(=O)c1ccc(-c3ccc(-c4noc(C)n4)cc3C)cc1)CC2` are 251 nM, 3.16 nM and 0.
With `COc1cc2c(cc1N1C[C@@H](C)N(C)[C@@H](C)C1)N(C(=O)Cc1cccc(C(F)(F)F)c1F)CC2`, the Ki in series [1] is 126 nM; in series [4], 1.58 nM. Further, the Intrinsic activity in series [6] was 0.1.
For the molecule `COc1cc2c(cc1N1C[C@@H](C)N(C)[C@@H](C)C1)N(C(=O)Nc1cccc(Cl)c1Cl)CC2`, the Ki in series [1] is 79.4 nM; in [4] it was 7.94 nM. The Selectivity in series [3] turned out to be 200; in [5], 10. For the same molecule, the Intrinsic clearance in series [7] and in series [8] was 3 mL/min/g each time. For the same molecule, the Intrinsic activity in series [6] and in series [9] was 0.1 in each case.
With `COc1cc2c(cc1N1C[C@@H](C)N(C)[C@@H](C)C1)N(C(=O)c1ccc(-c3cccc(C)n3)c3ccccc13)CC2`, the values for the Ki in series [1], in [2] and in [4] were 100 nM, 501 nM and 3.16 nM, respectively. Further, the Selectivity turned out to be 160 in series [3] and 30 in series [5]. Also, the Intrinsic clearance worked out at 46 mL/min/g in [7] and 34 mL/min/g in series [8]. Moreover, the Intrinsic activity in series [6] worked out at 0.3.
Take `CCCN1[C@H](C)CN(c2cc3c(cc2OC)CCN3C(=O)c2ccc(-c3cccc(C)n3)c3ccccc23)C[C@@H]1C`: the Ki was 158 nM in [1], 79.4 nM in series [2] and 31.6 nM in series [4]. The figures for the Selectivity in series [3] and in series [5] were 2 and 4.7, respectively.
As to `COc1cc2c(cc1N1CCN(C)CC1)N(C(=O)c1ccc(-c3cccc(C)n3)c3ccccc13)CC2`, the Ki in series [1] was 25.1 nM; in series [2], 12.6 nM; in series [4], 2 nM. Also, the Selectivity in series [3] was 6; in series [5], 12. Also, the Intrinsic activity in series [6] and in series [9] was 0.9 throughout.
Regarding `COc1cc2c(cc1N1CCN(C)CC1)N(C(=O)Nc1cccc(Cl)c1Cl)CC2`, the Ki is 12.6 nM in series [1], 50.1 nM in series [2] and 3.98 nM in series [4]. Further, the values for the Selectivity in series [3] and in series [5] were 13 and 3, respectively. Also, the values for the Intrinsic activity in [6] and in series [9] were 0.6 and 0.7, respectively.
Take `COc1cc2c(cc1N1C[C@@H](C)N(C)[C@@H](C)C1)N(C(=O)c1cccc(Cl)c1)CC2`: the Ki in series [1] is 251 nM; in [4], 20 nM.
On to `COc1cc2c(cc1N1C[C@@H](C)N(C)[C@@H](C)C1)N(C(=O)c1cccc(Cl)c1Cl)CC2`, for which the Ki was 251 nM in [1] and 12.6 nM in series [4].
In the case of `COc1cc2c(cc1N1C[C@@H](C)N(C)[C@@H](C)C1)N(C(=O)Nc1cccc(C(F)(F)F)c1F)CC2`, the figures for the Ki in series [1] and in [4] were 158 nM and 3.98 nM, respectively. Also, in series [6], the Intrinsic activity is 0.
The corresponding values for `COc1cc2c(cc1N1C[C@@H](C)N(C)[C@@H](C)C1)N(C(=O)Cc1cccc(F)c1C(F)(F)F)CC2` are 200 nM, 3.16 nM and 0.1.
The corresponding values for `COc1cc2c(cc1N1C[C@@H](C)N[C@@H](C)C1)N(C(=O)c1ccc(-c3ccc(N4CCCC4=O)nc3C)cc1)CC2` are 398 nM, 5.01 nM and 0.
Regarding `CCN1[C@H](C)CN(c2cc3c(cc2OC)CCN3C(=O)c2ccc(-c3cccc(C)n3)c3ccccc23)C[C@@H]1C`, the Ki is 126 nM in [1], 501 nM in [2] and 3.98 nM in series [4]. In addition, the values for the Selectivity in series [3] and in [5] were 110 and 28, respectively. Also, the Intrinsic clearance in [7] came out at 45 mL/min/g; in series [8] it was 47 mL/min/g.
Turning to `COc1cc2c(cc1N1C[C@@H](C)N[C@@H](C)C1)N(C(=O)c1ccc(-c3cc(C)ncc3C)cc1)CC2`, the results for the Ki in series [1] and in series [4] were 501 nM and 7.94 nM, respectively. In series [6], this molecule showed an Intrinsic activity of 0.
Regarding `COc1cc2c(cc1N1C[C@@H](C)N[C@@H](C)C1)N(C(=O)c1ccc(-c3cccc(C)n3)c3ccccc13)CC2`, the Ki in [1] is 126 nM; in series [2], 1000 nM; in [4], 50.1 nM. Moreover, the Selectivity stood at 21 in [3] and 2.8 in series [5]. The Intrinsic clearance in series [7] was found to be 12 mL/min/g; in [8], 14 mL/min/g.
As for `COc1cc2c(cc1N1C[C@@H](C)N[C@@H](C)C1)N(C(=O)c1ccc(-c3ccc(-c4ncccn4)cc3C)cc1)CC2`, the figures for the Ki in [1] and in series [4] were 251 nM and 5.01 nM, respectively.
Turning to `CN1CCN(c2cc3c(cc2Cl)CCN3C(=O)Nc2ccc(-c3ccncc3)c3ccccc23)CC1`, the figures for the Ki in series [1], in series [2] and in [4] were 1 nM, 3.98 nM and 3.98 nM, respectively. Besides, the Selectivity was 1 in series [3] and 0.25 in series [5].
In the case of `COc1cc2c(cc1N1C[C@@H](C)N(C)[C@@H](C)C1)N(C(=O)Cc1cccc([N+](=O)[O-])c1)CC2`, the Ki in series [1] was 251 nM; in [2], 2000 nM; in series [4], 15.8 nM. Besides, the Selectivity in [3] was 125; in series [5], 15. Besides, the results for the Intrinsic activity in series [6] and in [9] were 0.1 and 0.2, respectively.
Take `COc1cc2c(cc1N1C[C@@H](C)N(C)[C@@H](C)C1)N(C(=O)c1ccc(-c3ccccc3C)cc1)CC2`: the Ki is 15.8 nM in series [1] and 0.631 nM in [4]. In series [6], this molecule yielded an Intrinsic activity of 0.
